This experiment concerns the target NAD-dependent malic enzyme (Escherichia coli K12) (UniProt P26616). As to the kind of experiment: Inhibition of Escherichia coli K-12 recombinant NAD-dependent malic enzyme at 0.2 mM.

Active and inactive are the calls of the source. The calls are words filed in the database; no cut-off is given here.

Sequence of NAD-dependent malic enzyme (Escherichia coli K12) (P26616 whole entry, looked up): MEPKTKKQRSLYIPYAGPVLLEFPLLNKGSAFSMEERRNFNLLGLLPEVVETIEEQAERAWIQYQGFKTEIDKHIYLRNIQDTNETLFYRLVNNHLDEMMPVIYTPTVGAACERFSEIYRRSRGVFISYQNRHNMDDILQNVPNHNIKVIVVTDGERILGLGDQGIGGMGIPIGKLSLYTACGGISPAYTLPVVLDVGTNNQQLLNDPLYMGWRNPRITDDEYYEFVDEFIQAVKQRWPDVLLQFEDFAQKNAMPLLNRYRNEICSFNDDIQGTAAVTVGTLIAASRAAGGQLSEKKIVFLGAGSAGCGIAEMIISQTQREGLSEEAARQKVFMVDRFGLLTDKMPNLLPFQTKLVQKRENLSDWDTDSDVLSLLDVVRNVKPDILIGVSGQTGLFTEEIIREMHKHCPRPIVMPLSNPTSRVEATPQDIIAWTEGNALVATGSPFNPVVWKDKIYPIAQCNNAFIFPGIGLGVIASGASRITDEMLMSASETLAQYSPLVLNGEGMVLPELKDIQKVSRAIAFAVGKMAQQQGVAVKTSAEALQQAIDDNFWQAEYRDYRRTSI

With `O=P(O)(O)OC[C@H]1O[C@@H](n2cc(-c3ccccc3)nn2)[C@H](O)[C@@H]1O`, the inhibition result was “Active”. Under `O=C(NCc1cn([C@@H]2O[C@H](COP(=O)(O)O)[C@@H](O)[C@H]2O)nn1)c1ccccc1` stands “Active”; under `O=P(O)(O)OC[C@H]1O[C@@H](n2cc(-c3ccccc3F)nn2)[C@H](O)[C@@H]1O`, “Active”.

With `COc1ccc(-c2cn([C@@H]3O[C@H](COP(=O)(O)O)[C@@H](O)[C@H]3O)nn2)cc1`, the inhibition entry was “Active”. Next, `O=P(O)(O)OC[C@H]1O[C@@H](n2cc(-c3cccc4ccccc34)nn2)[C@H](O)[C@@H]1O`: “Active”; `Cc1ccccc1-c1cn([C@@H]2O[C@H](COP(=O)(O)O)[C@@H](O)[C@H]2O)nn1`: “Active”; `O=P(O)(O)OC[C@H]1O[C@@H](n2cc(-c3ccc(F)cc3)nn2)[C@H](O)[C@@H]1O`: “Active”. Under `Nc1ccccc1-c1cn([C@@H]2O[C@H](COP(=O)(O)O)[C@@H](O)[C@H]2O)nn1` stands “Active”; under `O=P(O)(O)OC[C@H]1O[C@@H](n2cc(-c3ccccc3C(F)(F)F)nn2)[C@H](O)[C@@H]1O`, “Active”; under `O=P(O)(O)OC[C@H]1O[C@@H](n2cc(CCO)nn2)[C@H](O)[C@@H]1O`, “Active”. As to `CC(=O)NCc1cn([C@@H]2O[C@H](COP(=O)(O)O)[C@@H](O)[C@H]2O)nn1`, the inhibition result was “Active”.
